In patent US20230180804A1, “FLAVOR COMPOSITION, AND FOOD AND BEVERAGE” (TAKASAGO INTERNATIONAL CORPORATION, priority 2020, published 2023):

Key:
[1] = Sensory evaluation of p-cresol odor masking in p-cresol-containing lemon dressing; conditions: lemon dressing with 500 ppb p-cresol; for p-Cresol Odor Intensity: average score of 9 panelists, scale 0-4
Method: To a commercially available lemon dressing, p-cresol adjusted to a concentration of 0.1% with 95% ethanol was added to 500 ppb in the lemon dressing. To this p-cresol-containing lemon dressing, l-oxacycloheptadecan-8-en-2-one was added at the concentrations presented in Table 18 to confirm the p-cresol odor intensity (masking effect) and the influence on the citrus flavor of each sample.
Nine skilled panelists were selected to perform the same sensory evaluation as in Example 1. The results are as in Table 18, presenting the average score of the evaluation results for each panelist.

[2] = Sensory evaluation of p-cresol odor masking in p-cresol-containing grated raw ginger; conditions: for p-Cresol Odor Intensity: grated ginger with 600 ppb p-cresol, average score of 9 panelists, scale 0-4
Method: To commercially available grated raw ginger, p-cresol adjusted to a concentration of 0.1% with 95% ethanol was added to a concentration of 600 ppb in the ginger. To this p-cresol-containing ginger, 1-oxacycloheptadecan-8-en-2-one was added at the concentrations presented in Table 16 to confirm the p-cresol odor intensity (masking effect) and the influence on the ginger flavor of each sample.
Nine skilled panelists were selected to perform the same sensory evaluation as in Example 1. The results are as in Table 16, presenting the average score of the evaluation results for each panelist.

[3] = target: T1, olfactory receptor OR9Q2 (Homo sapiens, UniProt Q8NGE9); test: OR9Q2 response inhibitory effect for p-cresol, luciferase reporter gene assay; format: cell-based; conditions: p-cresol 100 µM mixed with various concentrations of compound; cells expressing OR9Q2; ratio of Fold Increase value (FIGS. 1 to 11)
T1 construct: 20 N-terminal amino acid residues of bovine rhodopsin (Rho tag); expressed in transfected cells; host or cells: HEK293T
T1 sequence (Q8NGE9 1-314): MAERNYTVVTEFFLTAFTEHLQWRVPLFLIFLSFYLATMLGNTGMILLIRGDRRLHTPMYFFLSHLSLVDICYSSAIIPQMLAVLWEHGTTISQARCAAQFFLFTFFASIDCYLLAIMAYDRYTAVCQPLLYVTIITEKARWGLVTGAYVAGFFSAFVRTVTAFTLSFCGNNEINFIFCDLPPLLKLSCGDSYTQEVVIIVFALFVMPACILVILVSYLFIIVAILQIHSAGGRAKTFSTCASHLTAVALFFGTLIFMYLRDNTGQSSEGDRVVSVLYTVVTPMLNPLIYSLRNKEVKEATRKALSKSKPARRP
Method: The human olfactory receptor gene was obtained by cloning from Human Genomic DNA: Female (Promega) by PCR method based on the sequence information registered in GenBank. The 20 N-terminal amino acid residues of bovine rhodopsin were incorporated into the pME18S vector, and the obtained human olfactory receptor gene was incorporated downstream thereof to obtain a human olfactory receptor gene expression vector.
In 10 µL of Opti-MEM I (gibco), 0.05 µg of human olfactory receptor gene expression vector, 0.01 µg of RTP1S vector, 0.01 µg firefly luciferase vector pGL4.29 (Promega) containing cAMP response element promoter, and 0.005 µg of Renilla luciferase vector pGL4.74 (Promega) containing thymidine kinase promoter were dissolved to prepare a gene solution (for one well). HEK293T cells were seeded at 100 µL each in a 96-well plate (Biocoat, Coming) at the number of cells reaching confluence after 24 hours, and a gene solution was added to each well by the lipofection method according to the usage of Lipofectamine 3000 to introduce genes into the cells, and the cells were cultured at 37° C. in a 5% carbon dioxide atmosphere for 24 hours.
After removing the culture medium, the resultant was prepared with CD293 (gibco) medium ([…] added) so as to have a concentration for measuring the aroma substance to be tested, 50 µL of which was added each and stimulated for 3 hours, and then luciferase activity was measured according to the method of using the Dual-Luciferase Reporter Assay System (Promega). The response intensity of the olfactory receptor polypeptide was expressed as a Fold Increase value obtained by dividing the luciferase activity produced by stimulating the aroma substance by the luciferase activity produced in the test system containing no aroma substance.
p-Cresol at 100 µM was mixed with various concentrations of 1-oxacycloheptadecan-7-en-2-one, 1-oxacycloheptadecan-8-en-2-one, isoambrettolide, pentalide, muscone, civetone, 8-2-decenolactone, cinnamic aldehyde, […], sclareolide, and ethyl maltol, and receptor responses were measured in cells expressing OR9Q2. The ratio of the Fold Increase value in the test in which each compound was mixed was calculated, where the Fold Increase value in the test in none of these compounds was mixed was set to 100. FIGS. 1 to 11 present the results.

[4] = Sensory evaluation of p-cresol odor masking in p-cresol-containing citrus-flavored confectionery (tablet); conditions: for p-Cresol Odor Intensity: tablet with 200 ppb p-cresol, average score of 6 panelists, scale 0-4
Method: Lemon cold-pressed oil was added to the tablet having the composition presented in Table A at a concentration of 1 % by mass, and medium chain fatty acid triglycerides (MCT) was used to adjust p-cresol to a concentration of 0.1%, which was further added so as to reach 200 ppb in the citrus flavored confectionery. To this p-cresol-containing citrus-flavored confectionery, 1-oxacycloheptadecan-7-en-2-one was added at the concentrations presented in Table 12, and then tableting was performed to confirm the p-cresol odor intensity (masking effect) and the influence on the citrus flavor of each sample.
Six skilled panelists were selected to perform the same sensory evaluation as in Example 1. The results are as in Table 12, presenting the average score of the evaluation results for each panelist.

[5] = grated raw ginger with 600 ppb p-cresol
[6] = citrus-flavored confectionery (tablet) with 200 ppb p-cresol

O=C1CCCCCCCCCCCCCCO1 [Pentalide, pentalide]
p-Cresol Odor Intensity ([1]; 1 ppb added): 1.1 points
p-Cresol Odor Intensity ([1]; 1 ppt added): 3.6 points
p-Cresol Odor Intensity ([1]; 10 ppb added): 0.9 points
p-Cresol Odor Intensity ([1]; 10 ppt added): 2.8 points
p-Cresol Odor Intensity ([1]; 100 ppt added): 1.9 points
concentration at which the compound masks the p-cresol odor and does not affect the citrus flavor, lower limit [1]: ≥ 10 ppt
concentration at which the compound masks the p-cresol odor and does not affect the citrus flavor, upper limit [1]: ≤ 10 ppb
p-Cresol Odor Intensity ([2]; 1 ppb added): 1.3 points
p-Cresol Odor Intensity ([2]; 1 ppt added): 3.3 points
p-Cresol Odor Intensity ([2]; 10 ppb added): 1.1 points
p-Cresol Odor Intensity ([2]; 10 ppt added): 2.7 points
p-Cresol Odor Intensity ([2]; 100 ppt added): 1.6 points
concentration at which the compound masks the p-cresol odor and does not affect the ginger flavor, lower limit [2, 5]: ≥ 10 ppt
concentration at which the compound masks the p-cresol odor and does not affect the ginger flavor, upper limit [2, 5]: ≤ 1 ppb
effect of suppressing the response of OR9Q2 to p-cresol [3]: suppressing the response of OR9Q2 to p-cresol in a concentration-dependent manner
p-Cresol Odor Intensity ([4]; 4 ppb added): 2.3 points
p-Cresol Odor Intensity ([4]; 40 ppb added): 1.7 points
p-Cresol Odor Intensity ([4]; 40 ppt added): 2.8 points
p-Cresol Odor Intensity ([4]; 400 ppb added): 1.5 points
p-Cresol Odor Intensity ([4]; 400 ppt added): 2.7 points
concentration at which the compound masks the p-cresol odor and does not affect the citrus flavor, lower limit [4, 6]: ≥ 400 ppt
concentration at which the compound masks the p-cresol odor and does not affect the citrus flavor, upper limit [4, 6]: ≤ 400 ppb
